Source: US8809341B2, “2,4-pyrimidinediamine compounds and uses as anti-proliferative agents” (Rigel Pharmaceuticals, Inc., priority 2003, dated 2014)
Values belong to the compound of their own block, whether it stands above or below them.

Key:
[1] = system: A549 cells; assay: in vitro antiproliferation assay, A549 (lung); type: cell-based
Outline: (§1)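 IC50 values came from standard antiproliferation testing in cultured tumour cells; the A549 and H1299 lines are of lung origin.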

[2] = system: H1299 cells; assay: in vitro antiproliferation assay, H1299 (lung); type: cell-based
Outline: as §1

[3] = Homo sapiens, A549 (lung) cells
[4] = Homo sapiens, NCI-H1299, H1299 (lung) cells
[5] = in vitro antiproliferation, A549 (lung) cells, Table 4, compounds with no designated stereochemistry tested as racemate
[6] = in vitro antiproliferation, H1299 (lung) cells, Table 4, compounds with no designated stereochemistry tested as racemate
[7] = A549 (lung) cells, in vitro antiproliferation
[8] = H1299 (lung) cells, in vitro antiproliferation
[9] = A549 (lung) cells, antiproliferation
[10] = H1299 (lung) cells, antiproliferation
[11] = Table 5, in vitro antiproliferation, A549 (lung) cells
[12] = Table 5, in vitro antiproliferation, H1299 (lung) cells
[13] = IC50 class against A549 (lung) tumor cells
[14] = IC50 class against H1299 (lung) tumor cells

SMILES: O=C1Nc2ccc(Nc3nc(Nc4cccc(-c5ncco5)c4)ncc3F)cc2OC1CCO (centres unmarked) [compound 1145]
IC50 [1, 3]: ≤ 20 µM
IC50 [2, 4]: ≤ 20 µM

SMILES: Cc1cc(C)cc(Nc2ncc(F)c(Nc3ccc4c(c3)NC(=O)C(C)S4(=O)=O)n2)c1 (racemic) [compound 251]
IC50 [1, 5]: ≤ 20 µM
IC50 [2, 6]: ≤ 20 µM

SMILES: COc1cc(Nc2nc(Nc3cc(C)cc(C)c3)ncc2F)cc(C(F)(F)F)c1 [compound 817]
IC50 [1, 7]: ≤ 20 µM
IC50 [2, 8]: ≤ 20 µM

SMILES: Oc1cccc(Nc2nc(Nc3cccc(-c4ncon4)c3)ncc2F)c1 [compound 890]
IC50 [1, 9]: ≤ 20 µM
IC50 [2, 10]: ≤ 20 µM

SMILES: CNC(=O)COc1cccc(Nc2ncc(F)c(Nc3ccc(Cl)c(Cl)c3)n2)c1 [compound 697]
IC50 [1, 7]: ≤ 20 µM
IC50 [2, 8]: ≤ 20 µM

SMILES: COC(=O)c1cc(Nc2ncc(F)c(Nc3ccc4c(c3)OCCO4)n2)cc(-c2ncco2)c1 [compound 558]
IC50 [1, 11]: ≤ 20 µM
IC50 [2, 12]: ≤ 20 µM

SMILES: CC1(C)Oc2ccc(Nc3nc(Nc4ccc5cnn(C(C)(C)CC6CCCCC6)c5c4)ncc3F)cc2NC1=O [compound 1096]
IC50 ([1]; A549 (lung) cells): ≤ 20 µM
IC50 ([2]; H1299 (lung) cells): ≤ 20 µM

SMILES: COc1cc(Nc2ncc(F)c(Nc3cc(OC)cc(C(F)(F)F)c3)n2)cc(OC)c1 [compound 818]
IC50 [1, 7]: ≤ 20 µM
IC50 [2, 8]: ≤ 20 µM

SMILES: CN(c1ccc2c(c1)OCCO2)c1nc(Nc2cccc(-c3ncco3)c2)ncc1F [compound 549]
IC50 [1, 11]: ≤ 20 µM
IC50 [2, 12]: ≤ 20 µM

SMILES: COc1cc(OC)c(Nc2ncc(F)c(Nc3ccc4c(c3)NC(=O)[C@H](C)O4)n2)cc1Cl [compound 1141]
IC50 [1, 3]: > 20 µM
IC50 [2, 4]: > 20 µM

SMILES: Cc1cc(C)cc(Nc2ncc(F)c(Nc3ccc4c(c3)NC(=O)C(C)(C)S4(=O)=O)n2)c1 [compound 264]
IC50 [1, 5]: > 20 µM
IC50 [2, 6]: ≤ 20 µM

SMILES: CNC(=O)c1cc2cccc(Nc3ncc(F)c(Nc4cc(OC)cc(C(F)(F)F)c4)n3)c2[nH]1 [compound 669]
IC50 ([1]; Table 7, in vitro antiproliferation, A549 (lung) cells): ≤ 20 µM
IC50 ([2]; Table 7, in vitro antiproliferation, H1299 (lung) cells): ≤ 20 µM

SMILES: COc1ccc(Nc2ncc(F)c(Nc3ccc(OCCCN4CCOCC4)c(C)c3)n2)cc1OC [compound 945]
IC50 [1, 9]: ≤ 20 µM
IC50 [2, 10]: ≤ 20 µM

SMILES: CC(C)(C)OC(=O)NCc1ccc(Nc2ncc(F)c(Nc3ccc(CNC(=O)OC(C)(C)C)cc3)n2)cc1 [compound 1012]
IC50 [1, 9]: ≤ 20 µM
IC50 [2, 10]: ≤ 20 µM

SMILES: CNC(=O)c1ccc(Nc2ncc(F)c(N(C)c3ccc(OC)c(OC)c3)n2)cc1Cl [compound 875]
IC50 [1, 9]: ≤ 20 µM
IC50 [2, 10]: ≤ 20 µM

SMILES: COc1ccc(Nc2nc(Nc3cc(Cl)c(OC)c(Cl)c3)ncc2F)cc1Cl [compound 831]
IC50 [1, 7]: > 20 µM
IC50 [2, 8]: > 20 µM

SMILES: Cc1c(O)cccc1Nc1ncc(F)c(Nc2ccc3c(c2)NC(=O)C(C)(C)O3)n1 [compound 1064]
IC50 ([1]; A549 (lung) cells): ≤ 20 µM
IC50 ([2]; H1299 (lung) cells): ≤ 20 µM

SMILES: COc1cc(OC)cc(N(C)c2nc(Nc3ccc(Cl)c(OC)c3)ncc2F)c1 [compound 854]
IC50 [1, 7]: > 20 µM
IC50 [2, 8]: > 20 µM

SMILES: COC(=O)c1cc(Nc2ncc(F)c(Nc3cc(C(=O)OC)cc(-c4ncco4)c3)n2)cc(-c2ncco2)c1 [compound 891]
IC50 [1, 9]: > 20 µM
IC50 [2, 10]: > 20 µM

SMILES: Oc1cccc(Nc2nc(Nc3cccc(-c4ncco4)c3)ncc2F)c1 [compound 885]
IC50 [1, 9]: ≤ 20 µM
IC50 [2, 10]: ≤ 20 µM

Next, values leading:

IC50 ([1]; Homo sapiens, IC50 class against A549 (lung) tumor cells): ≤ 20 µM
IC50 ([2]; Homo sapiens, NCI-H1299, IC50 class against H1299 (lung) tumor cells): > 20 µM
SMILES: Fc1cnc(Nc2ccc(N3CCOCC3)cc2)nc1Nc1cc(C2CC2)[nH]n1 [compound 210]

IC50 [1, 13]: ≤ 20 µM
IC50 [2, 14]: ≤ 20 µM
SMILES: CC(=O)N1CCN(c2cccc(Nc3ncc(F)c(NC4CCCC4)n3)c2)CC1 [compound 136]

IC50 [1, 13]: ≤ 20 µM
IC50 [2, 14]: ≤ 20 µM
SMILES: CN1CCN(c2cccc(Nc3ncc(F)c(Nc4ccc5c(n4)NCCO5)n3)c2)CC1 [compound 609]

IC50 [1, 13]: ≤ 20 µM
IC50 [2, 14]: ≤ 20 µM
SMILES: CN1CCN(c2ccc(Nc3ncc(F)c(Nc4ccc5c(n4)NCCO5)n3)cc2Cl)CC1 [compound 615]

IC50 [1, 13]: ≤ 20 µM
IC50 [2, 14]: ≤ 20 µM
SMILES: CCN1CCN(c2ccc(Nc3ncc(F)c(NC4CCCC4)n3)cn2)CC1 [compound 168]

IC50 ([1]; A549 (lung) cells): ≤ 20 µM
IC50 ([2]; H1299 (lung) cells): ≤ 20 µM
SMILES: COc1cc(Nc2nc(Nc3ccc4c(cnn4C(C)(C)CC4CCCCC4)c3)ncc2F)ccc1F [compound 1093]

IC50 [1, 13]: ≤ 20 µM
IC50 [2, 14]: ≤ 20 µM
SMILES: Fc1cnc(Nc2ccc(N3CCOCC3)cc2)nc1NC1CCC1 [compound 132]

IC50 [1, 9]: > 20 µM
IC50 [2, 10]: ≤ 20 µM
SMILES: NC(=O)c1ccc(Nc2nc(Nc3cccc(O)c3)ncc2F)cc1 [compound 1026]

IC50 [1, 13]: ≤ 20 µM
IC50 [2, 14]: ≤ 20 µM
SMILES: CN1CCN(c2cccc(Nc3ncc(F)c(NC4CCCC4)n3)c2)CC1 [compound 137]

IC50 [1, 13]: ≤ 20 µM
IC50 [2, 14]: ≤ 20 µM
SMILES: CCN1CCN(c2ccc(Nc3ncc(F)c(NC(C)(C)C)n3)cn2)CC1 [compound 226]

IC50 [1, 13]: ≤ 20 µM
IC50 [2, 14]: ≤ 20 µM
SMILES: CCOC(=O)N1CCC(Nc2nc(Nc3ccc(N4CCN(C)CC4)c(C(F)(F)F)c3)ncc2F)CC1 [compound 189]
